In patent US8912184B1, “Therapeutic and diagnostic methods” (Alzheimer's Institute of America, Inc., priority 2010, dated 2014):
Where two headings read alike, the source gives them in different places.

Legend:
cancer cell lines = test: Standard Cytotoxicity Assay for other cancer cell types (TC50, CellTiter-Glo); type: cell-based
Procedure: (§1) Approximately 24 hours later, test compound was added from serial dilutions prepared in DMSO from DMSO stock solutions.

[1] = as above; type: cell-based; conditions: for CC50 at 3 day: read-out: Cmpd A 3 day TC50; for CC50 at 7 day: read-out: Cmpd A 7 day TC50
Procedure: as §1

[2] = human, MALME-3 cells (normal skin), MALME-3 cells (skin (normal))
[3] = human, hFLS-RA (primary synoviocytes)
[4] = keratinocytes (primary skin cells), keratinocytes (primary skin)

Compound: O=C(NCc1cccnc1)Nc1ccc(COc2ccccc2-c2ccccc2)cc1 [Exemplary Compound A, 1-{4-[(biphenyl-2-yloxy)methyl]phenyl}-3-(pyridin-3-ylmethyl)urea]
- CC50 (cancer cell lines; Homo sapiens, NB-4, 72 h, NB-4 cells (myelogenous leukemia), 3 day, read-out: Cmpd A 3 day TC50): < 0.8 nM
- CC50 (cancer cell lines; Homo sapiens, NCI-H69, 72 h, NCI-H69 (SCLC), 3 DAY, read-out: TC50 (the source's name)): 1 nM
- CC50 (cancer cell lines; Homo sapiens, NCI-H69, 72 h, NCI-H69 cells (lung (small cell)), 3 day, read-out: Cmpd A 3 day TC50): 1 nM
- CC50 (cancer cell lines; Homo sapiens, NCI-H82, 72 h, NCI-H82 (SCLC), 3 DAY, read-out: TC50 (the source's name)): 1.1 nM
- CC50 (cancer cell lines; Homo sapiens, NCI-H226, 72 h, NCI-H226 cells (lung (NSCLC)), 3 day, read-out: Cmpd A 3 day TC50): 62 nM
- CC50 (cancer cell lines; Homo sapiens, NCI-H460, 72 h, NCI-H460 (NSCLC), 3 DAY, read-out: TC50 (the source's name)): 15.4 nM
- CC50 (cancer cell lines; Homo sapiens, NCI-H460, 72 h, NCI-H460 cells (lung (NSCLC)), 3 day, n = 9, read-out: Cmpd A 3 day TC50): 26 nM
- CC50 (cancer cell lines; Homo sapiens, NCI-H460, 168 h, NCI-H460 cells (lung (NSCLC)), 7 day, n = 8, read-out: Cmpd A 7 day TC50): 17 nM
- CC50 (cancer cell lines; Homo sapiens, NCI-H522, 72 h, NCI-H522 (NSCLC), 3 DAY, read-out: TC50 (the source's name)): 1 nM
- CC50 (cancer cell lines; Homo sapiens, NCI-H522, 168 h, NCI-H522 (NSCLC), 7 DAY, read-out: TC50 (the source's name)): 0.4 nM
- CC50 (cancer cell lines; Homo sapiens, NCI-H522, 168 h, NCI-H522 cells (lung (NSCLC)), 7 day, read-out: Cmpd A 7 day TC50): 0.4 nM
- CC50 (cancer cell lines; Homo sapiens, NCI-H929, 72 h, NCI-H929 (myeloma), 3 DAY, read-out: TC50 (the source's name)): 2.5 nM
- CC50 (cancer cell lines; Homo sapiens, NCI-H1299, 72 h, NCI-H1299 cells (lung (NSCLC)), 3 day, read-out: Cmpd A 3 day TC50): 4 nM
- CC50 (cancer cell lines; Homo sapiens, NCI-H1650, 72 h, NCI-H1650 (NSCLC), 3 DAY, read-out: TC50 (the source's name)): 2.5 nM
- CC50 (cancer cell lines; Homo sapiens, NCI-H1650, 72 h, NCI-H1650 cells (lung (NSCLC)), 3 day, read-out: Cmpd A 3 day TC50): 1.5 nM
- CC50 (cancer cell lines; Homo sapiens, NCI-N87, 72 h, NCI-N87 (gastric), 3 DAY, read-out: TC50 (the source's name)): 0.3 nM
- CC50 (cancer cell lines; Homo sapiens, NCI-N87, 72 h, NCI-N87 cells (gastric), 3 day, read-out: Cmpd A 3 day TC50): 0.3 nM
- CC50 (cancer cell lines; Homo sapiens, NCI-N87, 168 h, NCI-N87 (gastric), 7 DAY, read-out: TC50 (the source's name)): 0.2 nM
- CC50 (cancer cell lines; Homo sapiens, NCI-N87, 168 h, NCI-N87 cells (gastric), 7 day, read-out: Cmpd A 7 day TC50): 0.2 nM
- CC50 (cancer cell lines; Homo sapiens, NOMO-1, 72 h, NOMO-1 cells (myelogenous leukemia), 3 day, read-out: Cmpd A 3 day TC50): < 0.8 nM
- CC50 (cancer cell lines; Homo sapiens, OCI-LY19, 72 h, OCI-LY-19 cells (lymphoma), 3 day, read-out: Cmpd A 3 day TC50): 1.1 nM
- CC50 (cancer cell lines; Homo sapiens, OCI-LY19, 72 h, OCI-Ly19 (lymphoma), 3 DAY, read-out: TC50 (the source's name)): 1.2 nM
- CC50 (cancer cell lines; Homo sapiens, OPM-2, 72 h, OPM-2 (myeloma), 3 DAY, read-out: TC50 (the source's name)): 1.5 nM
- CC50 (cancer cell lines; Homo sapiens, OVCAR-3, 72 h, OVCAR3 (ovarian), 3 DAY, read-out: TC50 (the source's name)): 1.1 nM
- CC50 (cancer cell lines; Homo sapiens, OVCAR-3, 72 h, OVCAR-3 cells (ovary), 3 day, read-out: Cmpd A 3 day TC50): 1.1 nM
- CC50 (cancer cell lines; Homo sapiens, OVCAR-3, 168 h, OVCAR3 (ovarian), 7 DAY, read-out: TC50 (the source's name)): 0.4 nM
- CC50 (cancer cell lines; Homo sapiens, OVCAR-3, 168 h, OVCAR-3 cells (ovary), 7 day, read-out: Cmpd A 7 day TC50): 0.4 nM
- CC50 (cancer cell lines; Homo sapiens, OVCAR-4, 72 h, OVCAR-4 cells (ovary), 3 day, read-out: Cmpd A 3 day TC50): 2.8 nM
- CC50 (cancer cell lines; Homo sapiens, OVCAR-5, 72 h, OVCAR-5 cells (ovary), 3 day, read-out: Cmpd A 3 day TC50): 1.5 nM
- CC50 (cancer cell lines; Homo sapiens, OVCAR-8, 72 h, OVCAR-8 cells (ovary), 3 day, read-out: Cmpd A 3 day TC50): 0.5 nM
- CC50 (cancer cell lines; Homo sapiens, PC-3, 72 h, PC-3 cells (prostate), 3 day, read-out: Cmpd A 3 day TC50): < 1.5 nM
- CC50 (cancer cell lines; Homo sapiens, PFSK-1, 72 h, PFSK-1 cells (brain; malignant neuroectodermal tumor), 3 day, read-out: Cmpd A 3 day TC50): < 0.8 nM
- CC50 (cancer cell lines; Homo sapiens, RPMI-8226, 72 h, RPMI-8226 cells (myeloma), 3 day, read-out: Cmpd A 3 day TC50): 6 nM
- CC50 (cancer cell lines; Homo sapiens, Ramos, 72 h, Ramos cells (lymphoma), 3 day, read-out: Cmpd A 3 day TC50): 1.8 nM
- CC50 (cancer cell lines; Homo sapiens, SF-295, 72 h, SF-295 (glioma), 3 DAY, read-out: TC50 (the source's name)): 1.5 nM
- CC50 (cancer cell lines; Homo sapiens, SK-BR-3, 72 h, SK-BR-3 cells (breast), 3 day, read-out: Cmpd A 3 day TC50): 6.8 nM
- CC50 (cancer cell lines; Homo sapiens, SK-OV-3, 72 h, SK-OV-3 cells (ovary), 3 day, read-out: Cmpd A 3 day TC50): 1.2 nM
- CC50 (cancer cell lines; Homo sapiens, SKM-1, 72 h, SKM-1 cells (myelogenous leukemia), 3 day, read-out: Cmpd A 3 day TC50): < 0.8 nM
- CC50 (cancer cell lines; Homo sapiens, SR, 72 h, SR cells (lymphoma), 3 day, read-out: Cmpd A 3 day TC50): 21 nM
- CC50 (cancer cell lines; Homo sapiens, SU-DHL10, 72 h, SU-DHL-10 cells (lymphoma), 3 day, read-out: Cmpd A 3 day TC50): 0.75 nM
- CC50 (cancer cell lines; Homo sapiens, SU-DHL-1, 72 h, SU-DHL-1 cells (lymphoma), 3 day, read-out: Cmpd A 3 day TC50): 37 nM
- CC50 (cancer cell lines; Homo sapiens, SU-DHL-4, 72 h, SU-DHL-4 (lymphoma), 3 DAY, read-out: TC50 (the source's name)): 1.5 nM
- CC50 (cancer cell lines; Homo sapiens, SU-DHL-4, 72 h, SU-DHL-4 cells (lymphoma), 3 day, read-out: Cmpd A 3 day TC50): 0.84 nM
- CC50 (cancer cell lines; Homo sapiens, SU-DHL-5, 72 h, SU-DHL-5 (lymphoma), 3 DAY, read-out: TC50 (the source's name)): 0.9 nM
- CC50 (cancer cell lines; Homo sapiens, SU-DHL-5, 72 h, SU-DHL-5 cells (lymphoma), 3 day, read-out: Cmpd A 3 day TC50): 0.57 nM
- CC50 (cancer cell lines; Homo sapiens, SU-DHL-8, 72 h, SU-DHL-8 cells (lymphoma), 3 day, read-out: Cmpd A 3 day TC50): 0.59 nM
- CC50 (cancer cell lines; Homo sapiens, SU.86.86, 72 h, SU.86.86 cells (pancreas), 3 day, read-out: Cmpd A 3 day TC50): 4.3 nM
- CC50 (cancer cell lines; Homo sapiens, SW48, 72 h, SW-48 cells (colon), 3 day, read-out: Cmpd A 3 day TC50): 2.3 nM
- CC50 (cancer cell lines; Homo sapiens, SW480, 72 h, SW 480 cells (colon), 3 day, read-out: Cmpd A 3 day TC50): 4 nM
- CC50 (cancer cell lines; Homo sapiens, T47D, 72 h, T47D cells (breast), 3 day, read-out: Cmpd A 3 day TC50): 0.8 nM
- CC50 (cancer cell lines; Homo sapiens, T-24, 72 h, T24 cells (bladder), 3 day, read-out: Cmpd A 3 day TC50): 1 nM
- CC50 (cancer cell lines; Homo sapiens, THP-1, 72 h, THP-1 cells (lymphocytic leukemia), 3 day, read-out: Cmpd A 3 day TC50): < 0.8 nM
- CC50 (cancer cell lines; Homo sapiens, U2OS, 72 h, U-2 OS cells (osteosarcoma), 3 day, read-out: Cmpd A 3 day TC50): 2.2 nM
- CC50 (cancer cell lines; Homo sapiens, U-87 MG, 72 h, U-87MG (glioma), 3 DAY, read-out: TC50 (the source's name)): 23 nM
- CC50 (cancer cell lines; Homo sapiens, U-87 MG, 72 h, U-87 MG cells (brain; glioblastoma/astrocytoma), 3 day, read-out: Cmpd A 3 day TC50): 15 nM
- CC50 (cancer cell lines; Homo sapiens, U-266, 72 h, U266 cells (myeloma), 3 day, read-out: Cmpd A 3 day TC50): 18 nM
- CC50 (cancer cell lines; Homo sapiens, U-266, 168 h, U266 cells (myeloma), 7 day, read-out: Cmpd A 7 day TC50): 1.5 nM
- CC50 (cancer cell lines; Homo sapiens, U-937, 72 h, U-937 cells (lymphoma), 3 day, read-out: Cmpd A 3 day TC50): 1 nM
- CC50 (cancer cell lines; Homo sapiens, UACC-257, 72 h, UACC-257 cells (melanoma), 3 day, read-out: Cmpd A 3 day TC50): 27 nM
- CC50 (cancer cell lines; Homo sapiens, VCaP, 72 h, VCaP cells (prostate), 3 day, n = 2, read-out: Cmpd A 3 day TC50): > 10000 nM
- CC50 (cancer cell lines; Homo sapiens, VCaP, 168 h, VCaP cells (prostate), 7 day, read-out: Cmpd A 7 day TC50): 14 nM
- CC50 (cancer cell lines; Hs766T, 72 h, Hs 766T cells (pancreas), 3 day, read-out: Cmpd A 3 day TC50): 4.7 nM
- CC50 (cancer cell lines; L-82, 72 h, L-82 cells (lymphoma), 3 day, read-out: Cmpd A 3 day TC50): 32 nM
- CC50 (cancer cell lines; MLE12, 72 h, MLE-12 cells (mouse; lung), 3 day, read-out: Cmpd A 3 day TC50): 4 nM
- CC50 (cancer cell lines; MM.1R, 72 h, MM.1R cells (myeloma), 3 day, read-out: Cmpd A 3 day TC50): 1.5 nM
- CC50 (cancer cell lines; Mus musculus, B16-F10, 72 h, B16-F10 cells (mouse; melanoma), 3 day, read-out: Cmpd A 3 day TC50): 80 nM
- CC50 (cancer cell lines; Mus musculus, Hepa1-6, 72 h, Hepa1-6 cells (mouse; hepatoma), 3 day, read-out: Cmpd A 3 day TC50): 2.5 nM
- CC50 (cancer cell lines; Mus musculus, RAW264.7, 72 h, RAW264.7 cells (mouse; leukemia), 3 day, read-out: Cmpd A 3 day TC50): 14 nM
- CC50 (cancer cell lines; OVCAR-3 cells (ovary), 3 day, read-out: Cmpd A 3 day TC50): < 0.8 nM
- CC50 (cancer cell lines; OVCAR-8 cells (ovary), 3 day, read-out: Cmpd A 3 day TC50): < 0.8 nM
- CC50 (cancer cell lines; SR-786, 72 h, SR-786 cells (lymphoma), 3 day, read-out: Cmpd A 3 day TC50): 1.1 nM
- CC50 (cancer cell lines; SU-DHL-10 cells (lymphoma), 3 day, read-out: Cmpd A 3 day TC50): 0.83 nM
- CC50 (cancer cell lines; SUP-M2, 72 h, SUP-M2 cells (lymphoma), 3 day, read-out: Cmpd A 3 day TC50): 2.2 nM
- CC50 (cancer cell lines; T47D cells (breast), 3 day, read-out: Cmpd A 3 day TC50): < 1.5 nM
- CC50 (cancer cell lines; U266 cells (myeloma), 3 day, read-out: Cmpd A 3 day TC50): 10.3 nM
- CC50 (cancer cell lines; U-937 cells (lymphoma), 3 day, read-out: Cmpd A 3 day TC50): 0.89 nM
- CC50 (cancer cell lines; UWB1289, 72 h, UWB1.289 cells (ovary), 3 day, read-out: Cmpd A 3 day TC50): 2.4 nM
- CC50 at 3 day ([1]; SAEC (primary lung cells), SAEC (primary lung), value printed with (?)): 15000 nM
- CC50 at 3 day [1, 2]: > 5000 nM
- CC50 at 7 day [1, 2]: 0.9 nM
- CC50 at 3 day [1, 3]: > 25000 nM
- CC50 at 7 day [1, 3]: > 25000 nM
- CC50 at 3 day [1, 4]: 2.9 nM
- CC50 at 7 day [1, 4]: < 0.4 nM
- CC50 at 3 day ([1]; mouse, NIH-3T3 cells (fibroblast), NIH-3T3 cells (mouse; fibroblast)): 0.45 nM
